Test results taken from patent US20250145722A1, “ANTI-GAL3 ANTIBODIES AND METHODS OF USE” (TrueBinding, Inc., priority 2020, published 2025).

Target: T1, interaction of Gal3 and Abeta (1-42) oligomer (Homo sapiens, UniProt P17931)
T1 construct: His
Test: Gal3-Abeta (1-42) oligomer blocking ELISA
Assay type: binding
Conditions: at 10,000 nM
Protocol: To identify Gal3-targeted antibodies with the ability to block the interaction of Gal3 and Abeta, purified Gal3 and Abeta (1-42) peptide and oligomer were incubated in the presence (or absence) of various Gal3-targeted or control antibodies, or without antibody, and protein interaction was evaluated by ELISA.
The plate was incubated for an hour at room temperature with gentle rocking. Thereafter, the plate was washed three times with PBST. […] The plate was incubated at room temperature for an hour with gentle rocking and then washed three times with PBST. […] Percent blockade of Gal3-Abeta (1-42) peptide or oligomer interaction was calculated as the fraction of signal obtained in the absence of antibody with the background signal subtracted.
The plate was incubated for an hour at room temperature with gentle rocking. Thereafter, the plate was washed three times with PBST. […] The plate was incubated at room temperature for an hour with gentle rocking and then washed three times with PBST. […] Percent blockade of Gal3-Abeta (1-42) oligomer interaction was calculated as the fraction of signal obtained in the absence of antibody or inhibitor with the background signal subtracted.

T1 sequence (P17931 2-250 limits assumed): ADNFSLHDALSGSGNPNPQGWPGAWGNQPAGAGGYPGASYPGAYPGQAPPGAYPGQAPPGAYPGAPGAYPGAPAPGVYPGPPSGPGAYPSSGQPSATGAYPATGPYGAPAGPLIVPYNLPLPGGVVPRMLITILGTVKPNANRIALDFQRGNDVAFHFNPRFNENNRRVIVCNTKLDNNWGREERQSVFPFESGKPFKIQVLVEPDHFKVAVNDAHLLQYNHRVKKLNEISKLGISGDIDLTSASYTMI

OC[C@H]1O[C@@H](S[C@@H]2O[C@H](CO)[C@H](O)[C@H](n3cc(-c4cccc(F)c4)nn3)[C@H]2O)[C@H](O)[C@@H](n2cc(-c3cccc(F)c3)nn2)[C@H]1O [TD139]
Percent blockade of Gal3-Abeta (1-42) oligomer interaction: at most 19%
